# Reference: PubChem BioAssay (NCI)
#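 Briefly, cells in 96-well plates were exposed to five compound concentrations for 48 h, and endpoints were estimated by linear interpolation. Definition used: TGI = concentration required for complete inhibition of growth.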
# Columns and labels:
# Test in all cases: DTP human tumour cell line panel, 48 h
# DMS 114 small cell lung = system: DMS 114 small cell lung
# SK-MEL-2 melanoma = system: SK-MEL-2 melanoma
# HCT-116 colon = system: HCT-116 colon
# SK-OV-3 ovarian = system: SK-OV-3 ovarian
# EKVX NSCLC = system: EKVX NSCLC
# SNB-75 CNS = system: SNB-75 CNS
# MALME-3M melanoma = system: MALME-3M melanoma
# HOP-92 NSCLC = system: HOP-92 NSCLC
# A498 renal = system: A498 renal
# DMS 273 small cell lung = system: DMS 273 small cell lung
# KM12 colon = system: KM12 colon
# A549 NSCLC = system: A549 NSCLC
# OVCAR-3 ovarian = system: OVCAR-3 ovarian
# UACC-62 melanoma = system: UACC-62 melanoma
# OVCAR-4 ovarian = system: OVCAR-4 ovarian
# SK-MEL-5 melanoma = system: SK-MEL-5 melanoma
# KM20L2 colon = system: KM20L2 colon
# SK-MEL-28 melanoma = system: SK-MEL-28 melanoma
# XF 498 CNS = system: XF 498 CNS
# OVCAR-5 ovarian = system: OVCAR-5 ovarian
# M19-MEL melanoma = system: M19-MEL melanoma
# RXF 393 renal = system: RXF 393 renal
# M14 melanoma = system: M14 melanoma
# NCI-H522 lung = system: NCI-H522 lung
# LOX IMVI melanoma = system: LOX IMVI melanoma
# MOLT-4 leukemia = system: MOLT-4 leukemia
# UO-31 renal = system: UO-31 renal
# OVCAR-8 ovarian = system: OVCAR-8 ovarian
# SN12C renal = system: SN12C renal
# SNB-19 CNS = system: SNB-19 CNS
# HOP-18 NSCLC = system: HOP-18 NSCLC
# CCRF-CEM leukemia = system: CCRF-CEM leukemia
# SF-539 CNS = system: SF-539 CNS
# NCI-H460 lung = system: NCI-H460 lung
# SNB-78 CNS = system: SNB-78 CNS
# K-562 leukemia = system: K-562 leukemia
# NCI-H226 lung = system: NCI-H226 lung
# HCT-15 colon = system: HCT-15 colon
# TK-10 renal = system: TK-10 renal
# U251 CNS = system: U251 CNS
# SF-295 CNS = system: SF-295 CNS
# IGROV1 ovarian = system: IGROV1 ovarian
# LXFL 529 NSCLC = system: LXFL 529 NSCLC
# SF-268 CNS = system: SF-268 CNS
# HT29 colon = system: HT29 colon
# SW-620 colon = system: SW-620 colon
# NCI-H23 lung = system: NCI-H23 lung
# 786-0 renal = system: 786-0 renal
# RPMI-8226 leukemia = system: RPMI-8226 leukemia
# ACHN renal = system: ACHN renal
# COLO 205 colon = system: COLO 205 colon
# UACC-257 melanoma = system: UACC-257 melanoma
# CAKI-1 renal = system: CAKI-1 renal
# HL-60(TB) leukemia = system: HL-60(TB) leukemia
# HCC-2998 colon = system: HCC-2998 colon
# SR leukemia = system: SR leukemia
# DLD-1 colon = system: DLD-1 colon
# HOP-62 NSCLC = system: HOP-62 NSCLC
compound,measurement,setting,value
COc1ccc(C=O)c(NC(=O)C(C)C)c1,TGI,DMS 114 small cell lung,88.7 µM
same,TGI,SK-MEL-2 melanoma,> 100 µM
same,TGI,HCT-116 colon,31.2 µM
same,TGI,SK-OV-3 ovarian,> 100 µM
same,TGI,EKVX NSCLC,> 100 µM
same,TGI,SNB-75 CNS,> 100 µM
same,TGI,MALME-3M melanoma,94.4 µM
same,TGI,HOP-92 NSCLC,53.5 µM
same,TGI,A498 renal,> 100 µM
same,TGI,DMS 273 small cell lung,> 100 µM
same,TGI,KM12 colon,> 10 µM
same,TGI,A549 NSCLC,> 100 µM
same,TGI,OVCAR-3 ovarian,> 100 µM
same,TGI,UACC-62 melanoma,> 100 µM
same,TGI,OVCAR-4 ovarian,> 100 µM
same,TGI,SK-MEL-5 melanoma,> 10 µM
same,TGI,KM20L2 colon,> 100 µM
same,TGI,SK-MEL-28 melanoma,> 100 µM
same,TGI,XF 498 CNS,68.9 µM
same,TGI,OVCAR-5 ovarian,> 100 µM
same,TGI,M19-MEL melanoma,49.5 µM
same,TGI,RXF 393 renal,64.5 µM
same,TGI,M14 melanoma,> 100 µM
same,TGI,NCI-H522 lung,46.3 µM
same,TGI,LOX IMVI melanoma,> 100 µM
same,TGI,MOLT-4 leukemia,74.7 µM
same,TGI,UO-31 renal,82.6 µM
same,TGI,OVCAR-8 ovarian,> 100 µM
same,TGI,SN12C renal,57.6 µM
same,TGI,SNB-19 CNS,> 100 µM
same,TGI,HOP-18 NSCLC,90.6 µM
same,TGI,CCRF-CEM leukemia,> 10 µM
same,TGI,SF-539 CNS,> 100 µM
same,TGI,NCI-H460 lung,> 100 µM
same,TGI,SNB-78 CNS,> 100 µM
same,TGI,K-562 leukemia,> 100 µM
same,TGI,NCI-H226 lung,> 10 µM
same,TGI,HCT-15 colon,> 100 µM
same,TGI,TK-10 renal,> 100 µM
same,TGI,U251 CNS,> 100 µM
same,TGI,SF-295 CNS,> 100 µM
same,TGI,IGROV1 ovarian,> 100 µM
same,TGI,LXFL 529 NSCLC,> 100 µM
same,TGI,SF-268 CNS,> 100 µM
same,TGI,HT29 colon,> 100 µM
same,TGI,SW-620 colon,> 10 µM
same,TGI,NCI-H23 lung,> 100 µM
same,TGI,786-0 renal,> 100 µM
same,TGI,RPMI-8226 leukemia,66.3 µM
same,TGI,ACHN renal,> 100 µM
same,TGI,COLO 205 colon,34.1 µM
same,TGI,UACC-257 melanoma,> 100 µM
CCOC(=O)C(=O)Nc1cc(Cl)ccc1Cl,TGI,DMS 114 small cell lung,> 100 µM
same,TGI,SK-MEL-2 melanoma,> 100 µM
same,TGI,HCT-116 colon,> 100 µM
same,TGI,SK-OV-3 ovarian,> 100 µM
same,TGI,EKVX NSCLC,> 100 µM
same,TGI,SNB-75 CNS,> 100 µM
same,TGI,MALME-3M melanoma,> 100 µM
same,TGI,HOP-92 NSCLC,> 100 µM
same,TGI,A498 renal,> 100 µM
same,TGI,DMS 273 small cell lung,> 100 µM
same,TGI,KM12 colon,> 100 µM
same,TGI,A549 NSCLC,> 100 µM
same,TGI,OVCAR-3 ovarian,> 100 µM
same,TGI,UACC-62 melanoma,> 100 µM
same,TGI,CAKI-1 renal,> 100 µM
same,TGI,HL-60(TB) leukemia,> 100 µM
same,TGI,OVCAR-4 ovarian,> 100 µM
same,TGI,SK-MEL-5 melanoma,> 100 µM
same,TGI,KM20L2 colon,> 100 µM
same,TGI,SK-MEL-28 melanoma,> 100 µM
same,TGI,XF 498 CNS,> 100 µM
same,TGI,OVCAR-5 ovarian,> 100 µM
same,TGI,M19-MEL melanoma,> 100 µM
same,TGI,M14 melanoma,> 100 µM
same,TGI,NCI-H522 lung,> 100 µM
same,TGI,MOLT-4 leukemia,> 100 µM
same,TGI,UO-31 renal,> 100 µM
same,TGI,OVCAR-8 ovarian,> 100 µM
same,TGI,HCC-2998 colon,> 100 µM
same,TGI,SN12C renal,> 100 µM
same,TGI,SNB-19 CNS,> 100 µM
same,TGI,HOP-18 NSCLC,> 100 µM
same,TGI,CCRF-CEM leukemia,> 100 µM
same,TGI,SR leukemia,> 100 µM
same,TGI,SF-539 CNS,> 100 µM
same,TGI,NCI-H460 lung,> 100 µM
same,TGI,K-562 leukemia,> 100 µM
same,TGI,NCI-H226 lung,> 100 µM
same,TGI,HCT-15 colon,> 100 µM
same,TGI,DLD-1 colon,> 100 µM
same,TGI,TK-10 renal,> 100 µM
same,TGI,U251 CNS,> 100 µM
same,TGI,SF-295 CNS,> 100 µM
same,TGI,IGROV1 ovarian,> 100 µM
same,TGI,LXFL 529 NSCLC,> 100 µM
same,TGI,SF-268 CNS,> 100 µM
same,TGI,HT29 colon,> 100 µM
same,TGI,HOP-62 NSCLC,> 100 µM
same,TGI,SW-620 colon,> 100 µM
same,TGI,NCI-H23 lung,> 100 µM
same,TGI,786-0 renal,> 100 µM
same,TGI,RPMI-8226 leukemia,> 100 µM
same,TGI,ACHN renal,> 100 µM
same,TGI,COLO 205 colon,> 100 µM
same,TGI,UACC-257 melanoma,> 100 µM
